Source: patent US20220402917A1, “COMPOUND AS SMALL MOLECULE INHIBITOR PD-1/PD-L1 AND APPLICATION THEREOF” (MEDSHINE DISCOVERY INC., priority 2019, published 2022)

Columns and labels:
PD1/PD-L1 [1] = biological target: T1, PD1/PD-L1 (Homo sapiens, UniProt Q9NZQ7); assay: NFAT activity test (TCR Activitor/PD-L1 CHO cells with PD-1/NFAT Reporter-Jurkat cells); assay type: cell-based; set-up: host or cells: TCR Activitor/PD-L1 CHO cells; PD-1/NFAT Reporter-Jurkat cells; conditions: TCR Activitor/PD-L1 CHO cells + PD-1/NFAT Reporter-Jurkat cells, 5 hours, luciferase; for IC50: read-out: IC50, inhibitory activity on PD1/PD-L1 binding (NFAT activity test)
Text: Experimental Example 3: NFAT Activity Test
The engineered T cell expresses PD-1 molecules and T cell receptor (TCR) on the surface, which can activate the NFAT signaling pathway of T cells after co-culturing with engineered antigen presenting cells (APCs). Expression of PD-L1 molecules on APCs can effectively attenuate the NFAT signaling pathway in T cells. PD-L1 inhibitors can be used effectively block the PD-1/PD-L1 regulatory mechanism, thereby reversing the weakened NFAT signaling pathway. After being pretreated with APC, the small molecule is co-cultured with T cells, then the expression of luciferase was detected to indirectly reflect the activation of the NFAT pathway in T cells.
The PD1/PD-L1 NFAT detection kit was purchased from BPS Biosciences. Birght-Glo reagent was purchased from Promega. Nivo multi-label analyzer (PerkinElmer).
The TCR Activitor/PD-L1 CHO cells with a growth confluence of 80% were plated into the plate at 35,000 cells per well and placed in a 37° C. cell culture incubator overnight; the compounds to be tested were diluted 5-fold to the 8th concentration, from 20 μM to 0.25 nM, and the DMSO concentration was 2%, a double-well experiment was set up. The TCR Activitor/PD-L1 CHO cell supernatant was discarded, 50 μl of compound working solution was added to each well, incubated at 37° C. for 30 minutes; after the incubation was completed, 50 μL of PD-1/NFAT Reporter-Jurkat cell suspension with a concentration of 4*10^5 cells/mL was added to each well, incubated at 37° C. for 5 hours. After the incubation was completed, 100 μL Bright-Glo was added to each well, and after mixing, the chemiluminescence signal was detected by a Nivo multi-label analyzer.
(§1) Using the equation (sample−Min)/(Max−Min)×100% to convert the raw data into inhibition rate, and the IC50 value can be obtained by curve fitting with four parameters (obtained from log(inhibitor) vs. response—Variable slope mode in GraphPad Prism). Table 3 provides the inhibitory activity of the compounds of the examples of the present disclosure on PD1/PD-L1 binding.
Target sequence in this assay (Q9NZQ7 19-290): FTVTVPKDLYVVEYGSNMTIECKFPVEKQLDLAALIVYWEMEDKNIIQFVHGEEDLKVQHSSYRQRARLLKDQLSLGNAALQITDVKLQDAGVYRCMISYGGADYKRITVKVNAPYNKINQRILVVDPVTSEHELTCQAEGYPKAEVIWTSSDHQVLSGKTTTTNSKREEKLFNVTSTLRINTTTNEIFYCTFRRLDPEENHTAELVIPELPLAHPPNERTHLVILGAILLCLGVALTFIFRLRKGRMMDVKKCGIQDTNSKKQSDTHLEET

[2] = biological target: T2, PD-L1 in MDA-MR-231 cells (Homo sapiens, UniProt Q9NZQ7); assay: Effect on expression level of PD-L1 in MDA-MR-231 cells (FACS); assay type: cell-based; conditions: 24 hours incubation, FACS detection of cell surface PD-L1
T2 construct: endogenous in cells; host or cells: MDA-MB-231
Method: Experimental Example 2: Using MDA-MR-231 Cells to Detect the Effect of Compounds on the Expression Level of PD-L1
The use of a triple-negative breast cancer cell line (MDA-MB-231) is an indirect method to assess PD-L1 endocytosis. PD-L1 molecules on the cell surface can be degraded by lysosomal and proteasome pathways, and small molecule inhibitors are added to induce PD-L1 endocytosis. After co-incubating small molecules with MDA-MB-231 cells for 24 hours, flow cytometry (Fluorescence-activated Cell Sorting, FACS) is used to detect the content of PD-L1 on the cell surface, which can indirectly reflect the effect of small molecule-induced PD-L1 endocytosis. Flow cytometry (FACS) is used to detect the effect of the compounds of the present disclosure on the expression level of PD-L1 in MDA-MR-231 cells.
Phosphate buffer (DPBS), 1640 medium, penicillin-streptomycin, fetal bovine serum, non-essential amino acids, 2-hydroxy-1-ethanethiol (2-ME), human interferon γ, LIVE/DEAD staining solution, staining buffer, fixation buffer, 0.25% trypsin, EDTA, anti-human PD-L1, anti-human PD-L1 isotype.
1640 complete medium preparation: 50 mL of fetal bovine serum, 5 mL of non-essential amino acids, 5 mL of penicillin-streptomycin and 0.5 mL of 2-hydroxy-1-ethanethiol were added to 439.5 mL of 1640 medium, and evenly mixed.
10 mM EDTA preparation: 1 mL of 0.5M EDTA was added to 49 mL of DPBS, and evenly mixed.
1) MDA-MB-231 cell counting and plating: The culture flask was taken out, the medium was removed and the culture flask was rinsed once with DPBS. After the culture flask was rinsed, 3 mL of 0.25% trypsin was added to the culture flask and the culture flask was placed in a 37° C. incubator for 1.5 min. The culture flask was taken out, 9 mL of 1640 complete medium was added to stop the reaction, the cells was transferred to a 50 mL centrifuge tube, and centrifuged at 1000 rpm for 5 min at 37° C. An appropriate volume of medium was added to re-suspend the cells according to the number of cells, and the number of cells was counted with a cell counter. The cell concentration was adjusted to 5×10^5 cells/mL with medium. Planking: A volume of 200 μL of cell suspension was added to each well of a 96-well plate, ensure that the number of cells in each well was 1×10^5. The cells were incubated overnight in an incubator. 2) Drug incubation: 100-fold dilution of compounds were prepared, and the drug was subjected to a 5-fold gradient dilution. 2 μL of each 100-fold dilution of compounds were added to each well. The cells were incubated in an incubator at 37° C. for 24 hours. 3) PD-L1 cell staining and FACS detection: the culture plate was taken out and the supernatant medium was discarded. The cells were washed once with 200 μL 1×PBS. 100 μL of EDTA (final concentration of 10 mM) was added to the cell suspension, and the cell suspension was treated at 37° C. for 10 min. Then after the cell suspension was centrifuged at 1500 rpm for 5 min, the cell suspension was washed once with 200 μL of staining solution. Staining: anti-human PD-L1 (2 μL per well) and LIVE/DEAD staining solution (1:1000) were diluted in staining solution, 50 μL of the staining solution was added to each well, and the staining was conducted at 4° C. for 30 min. Then the solution was washed twice with 200 μL of staining solution. Fixation: 100 μL of fixing solution was added to each well, the fixation was conducted at 4° C. for 15 min. The solution was then washed twice with 200 μL of staining solution, and 150 μL of solution was added to re-suspend the cells, followed by FACS detection.
Table 2 provides the effects of the compounds of the examples of the present disclosure on the expression level of PD-L1 in MDA-MR-231 cells.

PD1/PD-L1 [3] = biological target: T1, PD1/PD-L1; assay: PD-1/PD-L1 homogeneous time-resolved fluorescence (HTRF) binding experiment; set-up: purchased BPS Biosciences; conditions: HTRF (TR-FRET), PD-L1-biotin, PD1-Eu
Text: Experimental Example 1: PD-1/PD-L1 Homogenouse Time-Resolved Fluorescence (HTRF) Binding Experiment
When the PD-1 molecule as the donor is very close to the PD-L1 molecule as the acceptor, the donor molecule will transfer the energy to the receptor molecule, which in turn causes the receptor molecule to emit fluorescence. The ability of small molecules to prevent the binding of PD-L1 to PD-1 can be tested by detecting the intensity of fluorescence. A homogeneous time-resolved fluorescence (HTRF) binding experiment is used to detect the ability of the compounds of the present disclosure to inhibit the binding of PD-1/PD-L1.
PD1/PD-L1 TR-FRET detection kit was purchased from BPS Biosciences. Nivo multi-label analyzer (PerkinElmer).
PD1-Eu, Dye-labeled acceptor, PD-L1-biotin and compounds to be tested were diluted with the buffer in the kit. The compounds to be tested were subjected to 5-fold dilution to eight concentration gradients with a row gun. That is, from 40 μM to 0.5 nM, the DMSO concentration was 4%, and a double-well experiment was set up. 5 μL of inhibitor with each concentration gradient were added to the microwell plate, and 5 μL buffer containing 4% DMSO and 5 μL PD-L1-biotin (PD-L1-biotin) (60 nM) were added into well with the maximum signal (Max) and the well with the minimum signal (Min), only 5 μL of buffer was added to the well with the minimum signal (Min), and the incubation was conducted at 25° C. for 20 minutes. After the incubation was completed, 5 μL of diluted PD1-Eu (10 nM) and […] were added to each well. The reaction system was placed at 25° C. for 90 minutes. The TR-FRET signal was read by a multi-label analyzer after the reaction was completed.
as §1, with “1” for “3”, “binding” for “binding.”
Target sequence in this assay (Q9NZQ7 19-239 limits assumed): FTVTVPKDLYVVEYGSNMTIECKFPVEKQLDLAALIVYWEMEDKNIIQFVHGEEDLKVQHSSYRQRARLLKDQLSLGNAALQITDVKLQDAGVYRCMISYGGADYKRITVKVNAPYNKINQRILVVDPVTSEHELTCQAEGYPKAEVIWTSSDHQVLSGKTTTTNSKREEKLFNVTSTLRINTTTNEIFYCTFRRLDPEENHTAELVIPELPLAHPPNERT

[4] = Pharmacokinetic test in C57BL/6 mice; assay type: in vivo; conditions: mouse, plasma, male C57BL/6 mice
Method: Experimental Example 4: Pharmacokinetic Test
Experimental purpose: To study the pharmacokinetics of compounds in C57BL/6 mice.
Experimental materials: C57BL/6 mice (male, 8 weeks old, body weight 25 g-30 g)
Experimental operation: The pharmacokinetic characteristics of rodents after intravenous (IV) and oral (PO) administration of compounds were tested in standard protocols. In the experiment, the candidate compounds were formulated into 1 mg/mL clear solutions, and administered to mice via a single intravenous injection and oral administration. The vehicle of intravenous and oral administration was 5% DMSO/5% polyethylene glycol 15-hydroxystearate (Solutol)/90% aqueous solution. Four male C57BL/6 mice were used in the experiment, wherein two mice were administered intravenously at a dose of 1 mg/kg, and the plasma samples were collected 0.0833, 0.25, 0.5, 1, 2, 4, 6, 8 and 24 h after administration, the other two mice were given oral gavage at a dose of 10 mg/kg, and the plasma samples were collected 0.25, 0.5, 1, 2, 4, 6, 8, and 24 h after administration. Whole blood samples within 24 hours were collected, centrifuged at 3000 g for 15 minutes, and the supernatant was separated to obtain plasma samples. Acetonitrile solution containing internal standard was added thereto to precipitate proteins, the mixture was thoroughly mixed and centrifuged to obtain the supernatant for injection. The plasma concentration was quantified by LC-MS/MS analysis method, and the pharmacokinetic parameters were calculated, such as peak concentration (Cmax), clearance (CL), half-life (T1/2), […] (Vdss), area under the drug-time curve (AUC0-last), bioavailability (F) and so on.

T2 sequence (Q9NZQ7 19-290): as the sequence (Q9NZQ7 19-290) above

Row | Compound | Maximum effect (induction fold) (PD1/PD-L1 [1]) | IC50 (PD1/PD-L1 [1]) | IC50 [2] | IC50 (PD1/PD-L1 [3]) | bioavailability ([4]; PO 10 mg/kg vs IV 1 mg/kg, read-out: Bioavailability F) | Cmax ([4]; IV 1 mg/kg, PO 10 mg/kg (route not given for Cmax), read-out: Peak concentration Cmax) | clearance ([4]; IV 1 mg/kg, read-out: Clearance CL) | half-life ([4]; IV 1 mg/kg, read-out: Half-life T1/2 (IV) (converted)) | Vd ([4]; IV 1 mg/kg, read-out: Tissue distribution Vdss) | AUC(0-t) ([4]; PO 10 mg/kg, read-out: Area under the drug-time curve AUC0-last PO)
1 | Cc1cc(C(=O)Nc2cccc(-c3cccc(NC(=O)c4ccc(CNCCO)cn4)c3C)c2C)nc2c1CCN(CCO)C2 [Compound 1] | 3.71 induction fold | 34.9 nM | 62.5 nM | 2.08 nM | – | – | – | – | – | –
2 | Cc1cc(C(=O)Nc2cccc(-c3cccc(NC(=O)c4ccc(CNCCO)cn4)c3C)c2C)nc2c1CN(CCO)CC2 [Compound 2] | – | – | – | 2.1 nM | – | – | – | – | – | –
3 | Cc1cc(C(=O)Nc2cccc(-c3cccc(NC(=O)c4ccc(CNCCO)cn4)c3C)c2C#N)nc2c1CCN(CCO)C2 [Compound 7] | 3.38 induction fold | 38.4 nM | – | 3.22 nM | – | – | – | – | – | –
4 | Cc1cc(C(=O)Nc2cccc(-c3cccc(NC(=O)c4ccc(CNCCO)cn4)c3C)c2Cl)nc2c1CCN(C(CO)CO)C2 [Compound 11] | 3.81 induction fold | 42.5 nM | 25.1 nM | 4.54 nM | – | – | – | – | – | –
5 | Cc1cc(C(=O)Nc2cccc(-c3cccc(NC(=O)c4ccc(CNCCO)cn4)c3C)c2Cl)nc2c1CCN(C1CCC(O)CC1)C2 (stereo not shown) [Compound 15] | 3.80 induction fold | 33.9 nM | 29.3 nM | 8.86 nM | – | – | – | – | – | –
6 | Cc1c(NC(=O)c2ccc(CNCCO)cn2)cccc1-c1cccc(NC(=O)c2cc(NCCO)c3c(n2)CN(CCO)CC3)c1Cl [Compound 18] | 3.77 induction fold | 79.7 nM | 70.6 nM | 3.16 nM | – | – | – | – | – | –

More lines, in order of falling IC50 (PD1/PD-L1 [1]), values ahead:

Row | Maximum effect (induction fold) (PD1/PD-L1 [1]) | IC50 (PD1/PD-L1 [1]) | IC50 [2] | IC50 (PD1/PD-L1 [3]) | bioavailability ([4]; PO 10 mg/kg vs IV 1 mg/kg, read-out: Bioavailability F) | Cmax ([4]; IV 1 mg/kg, PO 10 mg/kg (route not given for Cmax), read-out: Peak concentration Cmax) | clearance ([4]; IV 1 mg/kg, read-out: Clearance CL) | half-life ([4]; IV 1 mg/kg, read-out: Half-life T1/2 (IV) (converted)) | Vd ([4]; IV 1 mg/kg, read-out: Tissue distribution Vdss) | AUC(0-t) ([4]; PO 10 mg/kg, read-out: Area under the drug-time curve AUC0-last PO) | Compound
7 | 4.23 induction fold | 25.1 nM | 0.75 nM | 1.49 nM | – | – | – | – | – | – | Cc1cc(C(=O)Nc2cccc(-c3cccc(NC(=O)c4ccc(CNCCO)cn4)c3C)c2Cl)nc2c1CCN(CC(=O)O)C2 [Compound 17]
8 | 4.39 induction fold | 23.4 nM | 9.48 nM | – | 61.6% | 260 nM | 36.6 mL/min/kg | 984 min | 40.8 L/kg | 3.1 µM·h | COc1cc(C(=O)Nc2cccc(-c3cccc(-c4cnc(CN5CC(C)(O)C5)c(OC)n4)c3Cl)c2Cl)nc2c1CCN(CCO)C2 [Compound 42]
9 | 3.43 induction fold | 16.9 nM | – | 3.58 nM | – | – | – | – | – | – | Cc1cc(C(=O)Nc2cccc(-c3cccc(NC(=O)c4ccc(CNCCO)cn4)c3C)c2Cl)nc2c1CCN(C1CCC(C)(C(=O)O)CC1)C2 (stereo not shown) [Compound 20]
10 | 3.54 induction fold | 14.3 nM | 93.2 nM | 4.65 nM | – | – | – | – | – | – | Cc1cc(C(=O)Nc2cccc(-c3cccc(NC(=O)c4ccc(CNCCO)cn4)c3Cl)c2C)nc2c1CCN(CCO)C2 [Compound 6]
